What was measured:
Type in all cases: in vivo
[1] = tested on: two spotted spidermite (Tetranychus urticae); assay: Tetranychus urticae - spray test OP-resistant; conditions: single active ingredient, French bean leaf disks; for Efficacy in % after 2d: 0.8 g ai/ha, mortality after 2 d
Description: (§1) To produce a suitable preparation of active compound, 1 part by weight of active compound is mixed with the stated amount of solvents and is diluted with water, containing an emulsifier concentration of 1000 ppm, to the desired concentration. To produce a suitable preparation of a spore suspension the spores are diluted with emulsifier containing water to the desired concentration. Further test concentrations are prepared by dilution with emulsifier containing water.
French bean (Phaseolus vulgaris) leaf disks which are heavily infested with all stages of the two spotted spidermite (Tetranychus urticae), are sprayed with a preparation of the active ingredient of the desired concentration.
After the specified period of time, mortality in % is determined 100% means all spider mites have been killed and 0% means none of the spider mites have been killed. The mortality values determined thus are recalculated using the Colby-formula (see sheet 1).

[2] = tested on: mustard beetle larvae (Phaedon cochleariae); assay: Phaedon cochleariae - spray test; conditions: single active ingredient, 0.16 g ai/ha, mortality after 6 d, Chinese cabbage leaf disks
Description: as §1
Chinese cabbage (Brassica pekinensis) leaf disks are sprayed with a preparation of the active ingredient of the desired concentration. Once dry, the leaf disks are infested with mustard beetle larvae (Phaedon cochleariae).
After the specified period of time, mortality in % is determined. 100% means all beetle larvae have been killed and 0% means none of the beetle larvae have been killed. The mortality values determined thus are recalculated using the Colby-formula (see sheet 1).

[3] = tested on: green peach aphid (Myzus persicae); assay: Myzus persicae - spray test; conditions: single active ingredient, 0.8 g ai/ha, mortality after 1 d, Chinese cabbage leaf disks
Description: as §1
Chinese cabbage (Brassica pekinensis) leaf disks infected with all instars of the green peach aphid (Myzus persicae), are sprayed with a preparation of the active ingredient of the desired concentration.
After the specified period of time, mortality in % is determined 100% means all aphids have been killed; 0% means none of the aphids have been killed. The mortality values determined thus are recalculated using the Colby-formula (see sheet 1).

Q: How did the “Efficacy in % after 2d” value [1] turn out when `Cc1c(COC(=O)[C@@H]2[C@H](/C=C(\Cl)C(F)(F)F)C2(C)C)cccc1-c1ccccc1` (racemic) [Bifenthrin] was run?
A: 0%

Q: For `CC1(C)[C@H](C(=O)O[C@H](C#N)c2cccc(Oc3ccccc3)c2)[C@@H]1/C=C(\Cl)C(F)(F)F` (racemic) [Lambda- Cyhalothrin, lambda-Cyhalothrin], which “Efficacy in % after 6d” value [2] is on record?
A: 33%

Q: For `CC1(C)[C@H](C(=O)O[C@H](C#N)c2cccc(Oc3ccccc3)c2)[C@@H]1/C=C\C(=O)OC(C(F)(F)F)C(F)(F)F` [Acrinathrin], which “Efficacy in % after 6d” value ([1]; 0.16 g ai/ha, mortality after 6 d) is on record?
A: 0%

Q: What about the “Efficacy in % after 2d” value [1] of the same compound?
A: 0%

Q: What about the “Efficacy in % after 1d” value [3] of the same compound?
A: 70%

Q: With `CC1(C)[C@H](C(=O)O[C@H](C#N)c2cccc(Oc3ccccc3)c2)[C@@H]1C=C(Br)Br` [Deltamethrin] as the compound, how does the “Efficacy in % after 2d” value [1] read?
A: 0%
